System: White Leghorn chickens
Type: in vivo
Conditions: oral gavage, 100 μg human IgG together with the adjuvant, two hens per group

Row | Compound | titers (antibodies in egg yolk)
1 | CCCCCCCCCCCCCCCCCC[N+](C)(C)CCCCCCCCCCCCCCCCCC.[Br-] [DDA, Dimethyl dioctadecyl ammonium bromide] | no or very low titers
2 | CTB | One of four chickens in the CTB-group showed high titers

Source: patent US20040241310A1, “Method of producing antibodies ex-vivo” (priority 2001, published 2004)
